Patent US12433846B2, “Drug delivery system for treatment of cancer” (SINTEF TTO AS, priority 2019, dated 2025)
Several values for one entry are separate records, joined by “and”; a condition that tells them apart may be missing. Equal entries are not always repeated.

Tests used:
[1] = tested on: PMCA-1 (peritoneal metastases from colorectal cancer); test: In vivo treatment effect in orthotopic PMCA-1 peritoneal carcinomatosis model; settings: PMCA-1, 15 mg/kg
[2] = tested on: PMCA-3 (pseudomyxoma peritonei); test: In vivo treatment effect in orthotopic PMCA-3 peritoneal carcinomatosis model; settings: PMCA-3, 15 mg/kg

Structure (SMILES): CO[C@H]1C(=O)[C@]2(C)[C@@H](OC)C[C@H]3OC[C@@]3(OC(C)=O)[C@H]2[C@H](OC(=O)c2ccccc2)[C@]2(O)C[C@H](OC(=O)[C@H](O)[C@@H](NC(=O)OC(C)(C)C)c3ccccc3)C(C)=C1C2(C)C [CBZ, cabazitaxel]
- mice still alive at day 90 after the injection ([1]; IP (FIG. 4)): 4 out of 6
- mice still alive at day 90 after the injection ([1]; IV (FIG. 4)): 3 out of 6
- tumor growth (growth index) compared to vehicle treatment ([1]; intraperitoneal (FIG. 1)): significantly inhibited tumor growth
- mice cured (sacrificed on day 100 with no detectable tumor) ([1]; intraperitoneal, day 100): 3/6 and 3 out of 6
- mice still alive at day 60 after the injection ([2]; IP (FIG. 6)): none of the mice
- mice alive at day 70 after the injection ([2]; IV (FIG. 6)): none of the mice
- tumor growth (growth index) compared to vehicle treatment ([2]; intraperitoneal (FIG. 2)): significantly reduced tumor growth
- mice cured (sacrificed on day 100 with no detectable tumor) ([2]; intraperitoneal, day 100): No animals were cured
